The text below walks through data of PubChem BioAssay (NCI).

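A five-concentration, 48-hour dose response in 96-well plates underlies each endpoint, interpolated linearly between surrounding concentrations. GI50 is the concentration that inhibits growth by half. At the TGI there is no net growth.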 A value given as a limit tells only on which side of the number the result lay.

Some test systems named below: KM12 colon; MCF7 breast; OVCAR-4 ovarian; K-562 leukemia; HOP-92 NSCLC; SN12C renal; M19-MEL melanoma; KM20L2 colon; LXFL 529 NSCLC; DLD-1 colon; XF 498 CNS.
What all share (test): inhibition of tumour cell growth, NCI panel, 48 h

On to `N#Cc1c(-c2ccc(Cl)cc2)n([O-])c2ccccc2[n+]1=O`, for which the GI50 with KM12 colon is 14.3 µM; in the test on MCF7 breast it was 15.9 µM; in the test on OVCAR-4 ovarian it was 2.94 µM; in the test on K-562 leukemia it was 2 µM; with HOP-92 NSCLC, 1.61 µM; with SN12C renal, 15.5 µM. In addition, the TGI was 28.7 µM with KM12 colon; above 100 µM in the test on MCF7 breast; 8.82 µM in the test with OVCAR-4 ovarian; 4.01 µM in the test on K-562 leukemia; 3.24 µM in the test on HOP-92 NSCLC; 37.2 µM in the test with SN12C renal.

Take `O=C(/C=C/CN1CCCCC1)Nc1cc2c(Nc3ccc(F)c(Cl)c3F)ncnc2cc1OCCOC(F)F`: the GI50 in the test on KM12 colon is 2.44 µM; in the test on MCF7 breast, 1.35 µM; in the test with OVCAR-4 ovarian, 1.23 µM; in the test on K-562 leukemia, 0.715 µM; in the test on HOP-92 NSCLC, 0.0548 µM; in the test with SN12C renal it was 0.318 µM. The TGI with KM12 colon was determined as 9.01 µM; in the test with MCF7 breast it was 10.3 µM; in the test on OVCAR-4 ovarian it was 13 µM; in the test with K-562 leukemia, 8.12 µM; in the test on HOP-92 NSCLC, 1.12 µM; in the test with SN12C renal it was 5.93 µM.

Regarding `COc1ccc(-c2nccn2-c2cc(OC)c(OC)c(OC)c2)cc1`, the GI50 is 0.451 µM with KM12 colon; 1.27 µM in the test on MCF7 breast; 15.3 µM in the test on OVCAR-4 ovarian; 1.5 µM in the test on K-562 leukemia; 7.01 µM in the test with HOP-92 NSCLC; 9.81 µM in the test on SN12C renal. Besides, the TGI in the test with KM12 colon, in the test on MCF7 breast, in the test on OVCAR-4 ovarian, in the test with K-562 leukemia, with HOP-92 NSCLC and in the test on SN12C renal was above 100 µM each time.

In the case of `CC(=O)NC1C(=O)CC(c2ccccc2)N(C)C1c1ccccc1` (configuration not stated), the TGI with KM12 colon, in the test on M19-MEL melanoma, in the test on KM20L2 colon, with OVCAR-4 ovarian, in the test with K-562 leukemia and in the test on LXFL 529 NSCLC was above 100 µM throughout. Moreover, the TGI in the test on HOP-92 NSCLC, with SN12C renal and with DLD-1 colon was above 100 µM in each case.

Consider `COc1ccc(/C=C2\CC(C)CC3C2=NN(C(C)=O)C3c2ccc(OC)c(OC)c2)cc1OC` (configuration not stated), for which the GI50 is 19.7 µM in the test on KM12 colon; 14.4 µM with MCF7 breast; 19.7 µM in the test on OVCAR-4 ovarian; 13 µM in the test with K-562 leukemia; 13.8 µM with HOP-92 NSCLC; 22.7 µM in the test with SN12C renal. Also, the TGI with KM12 colon was 42.1 µM; with MCF7 breast, 30.6 µM; in the test with OVCAR-4 ovarian, 84.3 µM; with K-562 leukemia, above 100 µM; with HOP-92 NSCLC, 33.5 µM; with SN12C renal, 62.3 µM.

For `O=C(Nc1cccc(Cl)c1)c1cc2cc(N=Nc3ccc(Br)cc3)ccc2oc1=O`, the TGI was 76 µM in the test on KM12 colon; above 100 µM with KM20L2 colon; 88.7 µM in the test with OVCAR-4 ovarian; above 100 µM with XF 498 CNS; above 100 µM in the test with K-562 leukemia; 30.5 µM in the test on LXFL 529 NSCLC. In addition, the TGI in the test with HOP-92 NSCLC, in the test on SN12C renal and with DLD-1 colon was above 100 µM throughout.

For `CC(=O)OC1C(OC/C2=C/C3[C@@H](C(C)C)CC=C(C)[C@@H]3CC(OC(=O)/C=C/c3cn(C)cn3)[C@]3(C)C=C[C@@]2(O)O3)OCC(O)C1O` (some centres not stated), the GI50 was 0.0123 µM with KM12 colon; 0.0146 µM in the test with MCF7 breast; 0.0586 µM in the test with OVCAR-4 ovarian; 0.0157 µM in the test on K-562 leukemia; 1.02 µM in the test on HOP-92 NSCLC; 0.186 µM with SN12C renal. Moreover, the TGI in the test on MCF7 breast, in the test on OVCAR-4 ovarian, in the test with K-562 leukemia, in the test on HOP-92 NSCLC and with SN12C renal was above 50 µM each time.

Turning to `COCC(O)CN1C(N)=NC(O)C1O` (configuration not stated), the TGI in the test on KM12 colon, in the test on M19-MEL melanoma, with KM20L2 colon, with LXFL 529 NSCLC, in the test with HOP-92 NSCLC and in the test on SN12C renal was above 100 µM in each case. Besides, the TGI in the test with DLD-1 colon is above 100 µM.

`Cc1cc(N2CCOCC2)nc(N(CCNc2ccnc3cc(Cl)ccc23)Cc2cccs2)n1`: the GI50 in the test on KM12 colon is 2.23 µM; in the test on MCF7 breast, 1.97 µM; with OVCAR-4 ovarian, 2.37 µM; in the test on K-562 leukemia it was 1.67 µM; in the test on HOP-92 NSCLC it was 0.22 µM; with SN12C renal, 1.9 µM. In addition, the TGI with KM12 colon was determined as 5.34 µM; with MCF7 breast, 4.68 µM; in the test on OVCAR-4 ovarian it was 7.59 µM; with K-562 leukemia, 3.98 µM; with HOP-92 NSCLC, 1.93 µM; in the test on SN12C renal it was 4.01 µM.

Consider `CC1SC(c2cccc(Oc3ccccc3)c2)N(CCc2cccs2)C1=O` (configuration not stated), for which the GI50 was 0.626 µM in the test with KM12 colon; 0.551 µM with MCF7 breast; 0.425 µM in the test with OVCAR-4 ovarian; 0.573 µM in the test on K-562 leukemia; 0.486 µM with HOP-92 NSCLC; 1.25 µM in the test with SN12C renal. In addition, the TGI with KM12 colon came out at 2.49 µM; with MCF7 breast it was 5.07 µM; in the test with OVCAR-4 ovarian it was 1.88 µM; with K-562 leukemia, 7.79 µM; with HOP-92 NSCLC, 1.86 µM; with SN12C renal, 2.7 µM.

In the case of `COc1cc(C2C3=C(COC3=O)N(CCO)c3cc4c(cc32)CCC4)cc(OC)c1OC` (configuration not stated), the GI50 is 0.0707 µM in the test with KM12 colon; 0.0986 µM in the test with MCF7 breast; 0.14 µM in the test with OVCAR-4 ovarian; 0.0955 µM with K-562 leukemia; 0.862 µM in the test with HOP-92 NSCLC; 0.142 µM in the test on SN12C renal. The TGI in the test on KM12 colon was 0.29 µM; in the test with MCF7 breast it was 23.8 µM; in the test on OVCAR-4 ovarian, above 20.9 µM; with K-562 leukemia it was above 10.4 µM; in the test on HOP-92 NSCLC it was above 25.3 µM; with SN12C renal it was above 32.5 µM.

Take `COc1cc2c(cc1Nc1nc(Nc3ccsc3C(N)=O)c3cc[nH]c3n1)N(C(=O)CN(C)C)CCC2`: the GI50 with KM12 colon was 0.529 µM; in the test on MCF7 breast it was 0.00343 µM; in the test with OVCAR-4 ovarian, 2.98 µM; in the test with K-562 leukemia, 0.875 µM; in the test on HOP-92 NSCLC, below 0.0025 µM; with SN12C renal, 3.67 µM. Moreover, the TGI in the test on KM12 colon was 2.66 µM; with MCF7 breast, above 25 µM; in the test with OVCAR-4 ovarian, 9.03 µM; in the test with K-562 leukemia, 13.7 µM; in the test on HOP-92 NSCLC, 1.19 µM; with SN12C renal, 11.8 µM.
